In PubChem BioAssay (NCI):
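48-hour exposure; five concentrations; linearly interpolated endpoints. Abbreviation: GI50, concentration required for 50% inhibition of growth. At the TGI there is no net growth.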

Columns and labels:
Assay in all cases: NCI anticancer screen, dose series, 48 h
786-0 renal = test system: 786-0 renal
A498 renal = test system: A498 renal
A549 NSCLC = test system: A549 NSCLC
ACHN renal = test system: ACHN renal
BT-549 breast = test system: BT-549 breast
CAKI-1 renal = test system: CAKI-1 renal
CCRF-CEM leukemia = test system: CCRF-CEM leukemia
COLO 205 colon = test system: COLO 205 colon
DU-145 prostate = test system: DU-145 prostate
HCC-2998 colon = test system: HCC-2998 colon
HCT-116 colon = test system: HCT-116 colon
HCT-15 colon = test system: HCT-15 colon
HL-60(TB) leukemia = test system: HL-60(TB) leukemia
HOP-62 NSCLC = test system: HOP-62 NSCLC
HOP-92 NSCLC = test system: HOP-92 NSCLC
HS 578T breast = test system: HS 578T breast
HT29 colon = test system: HT29 colon
IGROV1 ovarian = test system: IGROV1 ovarian
K-562 leukemia = test system: K-562 leukemia
KM12 colon = test system: KM12 colon
LOX IMVI melanoma = test system: LOX IMVI melanoma
MALME-3M melanoma = test system: MALME-3M melanoma
MCF7 breast = test system: MCF7 breast
MDA-MB-231 breast = test system: MDA-MB-231 breast
MDA-MB-435 = test system: MDA-MB-435
MOLT-4 leukemia = test system: MOLT-4 leukemia
NCI-H226 lung = test system: NCI-H226 lung
NCI-H23 lung = test system: NCI-H23 lung
NCI-H460 lung = test system: NCI-H460 lung
NCI-H522 lung = test system: NCI-H522 lung
NCI/ADR-RES ovarian = test system: NCI/ADR-RES ovarian
OVCAR-3 ovarian = test system: OVCAR-3 ovarian
OVCAR-4 ovarian = test system: OVCAR-4 ovarian
OVCAR-5 ovarian = test system: OVCAR-5 ovarian
OVCAR-8 ovarian = test system: OVCAR-8 ovarian
PC-3 prostate = test system: PC-3 prostate
RPMI-8226 leukemia = test system: RPMI-8226 leukemia
RXF 393 renal = test system: RXF 393 renal
SF-268 CNS = test system: SF-268 CNS
SF-295 CNS = test system: SF-295 CNS
SF-539 CNS = test system: SF-539 CNS
SK-MEL-2 melanoma = test system: SK-MEL-2 melanoma
SK-MEL-28 melanoma = test system: SK-MEL-28 melanoma
SK-MEL-5 melanoma = test system: SK-MEL-5 melanoma
SK-OV-3 ovarian = test system: SK-OV-3 ovarian
SN12C renal = test system: SN12C renal
SNB-19 CNS = test system: SNB-19 CNS
SNB-75 CNS = test system: SNB-75 CNS
SW-620 colon = test system: SW-620 colon
T-47D breast = test system: T-47D breast
TK-10 renal = test system: TK-10 renal
U251 CNS = test system: U251 CNS
UACC-62 melanoma = test system: UACC-62 melanoma
UO-31 renal = test system: UO-31 renal

For `COC(=O)C(N)CSC(c1ccccc1)(c1ccccc1)c1ccccc1` (stereo not drawn), the GI50 (786-0 renal) was 4.23 µM, the TGI (786-0 renal) was 86.5 µM and the GI50 (A498 renal) was 0.629 µM. The TGI (A498 renal) was 54 µM, the GI50 (A549 NSCLC) was 2.93 µM and the TGI (A549 NSCLC) was over 100 µM. For the same compound, the GI50 (ACHN renal) was 0.922 µM, the TGI (ACHN renal) was over 100 µM and the GI50 (BT-549 breast) was 2.29 µM. It also gave a TGI (BT-549 breast) of 53.3 µM, a GI50 (CAKI-1 renal) of 5.51 µM and a TGI (CAKI-1 renal) of over 100 µM. The GI50 (CCRF-CEM leukemia) was 0.636 µM, the TGI (CCRF-CEM leukemia) was over 100 µM and the GI50 (COLO 205 colon) was 2.15 µM. The TGI (COLO 205 colon) was over 100 µM, the GI50 (DU-145 prostate) was 3.26 µM and the TGI (DU-145 prostate) was over 100 µM. The GI50 (HCC-2998 colon) was 2.1 µM, the TGI (HCC-2998 colon) was 29.9 µM and the GI50 (HCT-116 colon) was 0.418 µM. The TGI (HCT-116 colon) was 34.4 µM, the GI50 (HCT-15 colon) was 2.7 µM and the TGI (HCT-15 colon) was over 100 µM. It also gave a GI50 (HL-60(TB) leukemia) of 1.82 µM, a TGI (HL-60(TB) leukemia) of 8.48 µM and a GI50 (HOP-62 NSCLC) of 48.9 µM. It also gave a TGI (HOP-62 NSCLC) of over 100 µM, a GI50 (HOP-92 NSCLC) of 0.436 µM and a TGI (HOP-92 NSCLC) of 13.2 µM. For the same compound, the GI50 (HS 578T breast) was 0.512 µM, the TGI (HS 578T breast) was 15 µM and the GI50 (HT29 colon) was 3.36 µM. For the same compound, the TGI (HT29 colon) was 59.6 µM, the GI50 (IGROV1 ovarian) was 9.86 µM and the TGI (IGROV1 ovarian) was over 100 µM. For the same compound, the GI50 (K-562 leukemia) was 0.63 µM, the TGI (K-562 leukemia) was over 100 µM and the GI50 (KM12 colon) was 2.88 µM. It also gave a TGI (KM12 colon) of 53.5 µM, a GI50 (LOX IMVI melanoma) of 4.48 µM and a TGI (LOX IMVI melanoma) of over 100 µM. It also gave a GI50 (MALME-3M melanoma) of 4.7 µM, a TGI (MALME-3M melanoma) of 74 µM and a GI50 (MCF7 breast) of 0.445 µM. The TGI (MCF7 breast) was over 100 µM, the GI50 (MDA-MB-231 breast) was 1.62 µM and the TGI (MDA-MB-231 breast) was 25.4 µM. For the same compound, the GI50 (MDA-MB-435) was 0.247 µM, the TGI (MDA-MB-435) was 0.644 µM and the GI50 (MOLT-4 leukemia) was 4 µM. It also gave a TGI (MOLT-4 leukemia) of over 100 µM, a GI50 (NCI-H226 lung) of 5.38 µM and a TGI (NCI-H226 lung) of over 100 µM. It also gave a GI50 (NCI-H23 lung) of 4.45 µM, a TGI (NCI-H23 lung) of over 100 µM and a GI50 (NCI-H460 lung) of 2.42 µM. It also gave a TGI (NCI-H460 lung) of 43.8 µM, a GI50 (NCI-H522 lung) of 0.334 µM and a TGI (NCI-H522 lung) of 2.22 µM. The GI50 (NCI/ADR-RES ovarian) was 8.81 µM, the TGI (NCI/ADR-RES ovarian) was 73.5 µM and the GI50 (OVCAR-3 ovarian) was 2.97 µM. For the same compound, the TGI (OVCAR-3 ovarian) was 44.8 µM, the GI50 (OVCAR-4 ovarian) was 15.5 µM and the TGI (OVCAR-4 ovarian) was over 100 µM. The GI50 (OVCAR-5 ovarian) was 3.84 µM, the TGI (OVCAR-5 ovarian) was over 100 µM and the GI50 (OVCAR-8 ovarian) was 2.53 µM. It also gave a TGI (OVCAR-8 ovarian) of over 100 µM, a GI50 (PC-3 prostate) of 1.72 µM and a TGI (PC-3 prostate) of over 100 µM. The GI50 (RPMI-8226 leukemia) was 0.676 µM, the TGI (RPMI-8226 leukemia) was 28.5 µM and the GI50 (RXF 393 renal) was 0.303 µM. For the same compound, the TGI (RXF 393 renal) was 11.7 µM, the GI50 (SF-268 CNS) was 1.04 µM and the TGI (SF-268 CNS) was over 100 µM. For the same compound, the GI50 (SF-295 CNS) was 2.89 µM, the TGI (SF-295 CNS) was over 100 µM and the GI50 (SF-539 CNS) was 0.399 µM. The TGI (SF-539 CNS) was 3.53 µM, the GI50 (SK-MEL-2 melanoma) was 0.493 µM and the TGI (SK-MEL-2 melanoma) was 5.72 µM. It also gave a GI50 (SK-MEL-28 melanoma) of 3.14 µM, a TGI (SK-MEL-28 melanoma) of over 100 µM and a GI50 (SK-MEL-5 melanoma) of 0.538 µM. For the same compound, the TGI (SK-MEL-5 melanoma) was 26.9 µM, the GI50 (SK-OV-3 ovarian) was 0.607 µM and the TGI (SK-OV-3 ovarian) was over 100 µM. For the same compound, the GI50 (SN12C renal) was 0.863 µM, the TGI (SN12C renal) was over 100 µM and the GI50 (SNB-19 CNS) was 1.58 µM. It also gave a TGI (SNB-19 CNS) of over 100 µM, a GI50 (SNB-75 CNS) of 3.68 µM and a TGI (SNB-75 CNS) of 41.6 µM. It also gave a GI50 (SW-620 colon) of 0.679 µM, a TGI (SW-620 colon) of over 100 µM and a GI50 (T-47D breast) of 4.62 µM. It also gave a TGI (T-47D breast) of over 100 µM, a GI50 (TK-10 renal) of 7.04 µM and a TGI (TK-10 renal) of 83.5 µM. It also gave a GI50 (U251 CNS) of 0.61 µM, a TGI (U251 CNS) of over 100 µM and a GI50 (UACC-62 melanoma) of 2.18 µM. For the same compound, the TGI (UACC-62 melanoma) was over 100 µM, the GI50 (UO-31 renal) was 9.93 µM and the TGI (UO-31 renal) was over 100 µM.
